The subject of one assay is IGF-I. The assay can be described thus: Serum total IGF-I levels (Immulite 2000) in the 2-year placebo-controlled trial. The assay is classed as in vivo, human. The settings on record: for IGF-I levels after withdrawal of MK-677 or switch to placebo: after crossover to placebo in year 2 or 3 and 6 months after withdrawal. Here is the method: Sixty-five healthy men and women (±HRT) ages 60-81 years were enrolled in a 2-year study of MK-677 (25 mg p.o. daily) or placebo. In addition to GH and IGF-I, the primary endpoints were fat-free mass (FFM), by 4-compartment model and DXA, and abdominal visceral fat (AVF) by CT. Secondary endpoints included isokinetic strength, function and quality of life (QoL); all endpoints were assessed at baseline and every 6 months, with frequent monitoring for adverse effects. This NIH-funded study was approved by the General Clinical Research Center (GCRC) and the University of Virginia Institutional Review Boards. All subjects gave written informed consent. A two-year, double-blind, placebo-controlled modified crossover trial of once-daily administration of an oral GH secretogogue (MK-677, 25 mg) to healthy older adults was performed. During the first year, subjects were randomized to MK-677 or placebo treatment. In each of 3 groups (23 men, 25 women on hormone replacement therapy (HRT) and 17 women not on HRT), ⅔ received MK-677 and ⅓ received placebo. At the end of year 1, the subjects who received placebo were switched to MK-677 treatment (N= 2/0 in year 2); subjects who received MK-677 for the first year were randomized to continue MK-677 (N=20) or to placebo (N=19). Assays and Insulin Sensitivity. Plasma glucose was measured on a Beckman analyzer and insulin and total IGF-I were measured in the GCRC Core Laboratory on an Immulite 2000 (Diagnostic Products Corporation, Los Angeles, Calif.). Additional safety laboratory tests were performed by standard methods in the UVA Clinical Laboratories. Fasting insulin and glucose were used to estimate insulin sensitivity by the Quicki method (4). The primary outcome data for the 6- and 12-month changes in FFM and AVF as well as for IGF-I and GH were analyzed via repeated measures ANCOVA. The FFM and AVF data were analyzed on the same scale as they were measured, while the IGF-I and GH data were transformed to the natural logarithmic scale before conducting the statistical analyses so that the variance and normality assumptions of the linear model were not violated. Since the FFM and AVF data were analyzed on the same scale as initially measured, the 6- and 12-month changes are reported as a difference between arithmetic means; changes in IGF-I and GH data analyzed on the natural algorithmic scale are reported as a ratio of geometric means.

Assay [1] can be described thus: T-score for total appendicular skeletal mass TASM/ht^2 (sarcopenia index). The assay is classed as in vivo, human. How it is done: The primary outcome measures were the effects of increased GH and IGF-I on AVF and FFM; additional outcomes included body weight, fat mass, body water compartments, 24-h GH secretory dynamics, insulin sensitivity, quality of life and physical performance. Because gender and height influence total muscle mass, an index of relative muscle mass was calculated: total ASM from DXA was divided by height squared in meters (TASM (kg)/ht^2). To put changes in FFM in a clinical perspective, a t-score was computed for each individual, relating the TASM/ht^2 to those of gender-specific young adults (12). In accordance with Baumgartner et al., sarcopenia was defined as ≦2 SD below young, gender-specific reference populations (13; 14).

Assay [2] can be described thus: Function tests and quality of life questionnaires. The settings on record: year 1. The assay is classed as in vivo, human. Here is the method: Quality of Life Assessments. Subjects completed 4 questionnaires to assess quality of life and general well-being: the 20-item Short Form Health Survey (SF-20); Beck Depression Inventory (BDI); Pittsburgh Sleep Quality Index (PSQI); and the Body Cathexis Scale (BCS).
Function. Function tests included walking 30 meters as quickly as possible, walking as far as possible in 6 minutes, descending and ascending 4 flights of stairs and rising and sitting 5 times from an armless chair with an 18″ seat height.
Correction for Height and Gender. All strength and function measurements were analyzed per kg of skeletal muscle (ASM). Baseline arm ASM and leg ASM were used for shoulder and knee strength, respectively; baseline TASM (sum of arms and legs) was used for the function tests.
With regard to the quality of life data, a Factor Analysis of the different scales of the questionnaires was performed to create an overall well-being factor (16). Initially, study subjects were used as their own internal controls and assessed if there was change over time in overall well being. Using the hierarchical linear modeling (HLM), a growth curve analysis was conducted, testing within-person linear and curvilinear change in overall well being over time.

For a further assay, the system named is GH. The settings on record: healthy older men and women; 25 mg p.o. daily; cited from earlier work.
Another assay concerns quadriceps muscle. Particulars: canines during remobilization; cited from earlier work.
The conditions of assay [3]: orally active; cited from earlier work.

Entries after “also recorded” stand apart in the source; their conditions may differ.

For the compound `CC(C)(N)C(=O)N[C@H](COCc1ccccc1)C(=O)N1CCC2(CC1)CN(S(C)(=O)=O)c1ccccc12.CS(=O)(=O)O` [MK-677, N-[1(R)-[(1,2-dihydro-1-methanesulfonylspiro[3H-indole-3,4′-piperidin]-1′-yl)carbonyl]-2-(phenylmethyloxy)ethyl]-2-amino-2-methylpropanamide methanesulfonate], the “IGF-I levels after withdrawal of MK-677 or switch to placebo” value is reported as “fell to baseline levels” with IGF-I (listed as Mk-677, methanesulfonate) and “returned to pre-treatment levels” in the assay on IGF-I (methanesulfonate). In addition, in the assay on IGF-I (at 6 and 12 months, 25 mg p.o. daily, N=43), the “fold increase in IGF-I levels” value is on record as 1.5 fold. In addition, the “IGF-I levels relative to normal range for young adults aged 21-25 (116-358 μg/L)” value in the assay on IGF-I (first year, 25 mg p.o. daily, methanesulfonate) was “levels in the young adult normal range; also recorded: increased into the normal range for young adults”. Also, the “T-scores for TASM/ht^2 vs. placebo” value in assay [1] (12 months) is “significantly increased”. Besides, the “subjects with a decrease in t-score (TASM/ht^2)” value in assay [1] (end of year 1, 25 mg p.o. daily) was 7 of 43. In addition, the “function or QoL” value in assay [2] was “did not result in changes”. Further, in the assay with GH, the “IGF-I and pulsatile GH release, previously reported” value is “enhanced IGF-I and pulsatile GH release into the young adult normal range”. Moreover, the “serum insulin-like growth factor-1 levels” value with quadriceps muscle is on record as “elevated levels of serum insulin-like growth factor-1”. Moreover, the “size and strength of the quadriceps muscle” value in the assay with quadriceps muscle is “increased the size and strength of the quadriceps muscle”. In addition, the diet-induced catabolism entry in assay [3] is “reverses diet-induced catabolism”.

The values above are taken from patent US7442706B2, “Methods for treating sarcopenia with a growth hormone secretagogue” (priority 2006, dated 2008).
